Data published in ChEMBL document CHEMBL5380778, “Structure-Directed Discovery of Potent Soluble Epoxide Hydrolase Inhibitors for the Treatment of Inflammatory Diseases” (J Med Chem, 2023).
pIC50: −log10 of the molar value.

What was measured:
[1] = Tmax in Sprague-Dawley rat at 50 mg/kg, po administered as single dose and measured upto 8 hrs by HPLC analysis; format: ADME, organism-based; settings: in vivo
[2] = Clearance in Sprague-Dawley rat at 10 mg/kg, iv administered as single dose and measured upto 8 hrs by HPLC analysis; format: ADME, organism-based; settings: in vivo
[3] = Microsomal stability in human liver microsomes assessed as mean compound concentration measured after 60 mins in the presence of NADPH-generating system by HPLC analysis (Rvb= 100 ug/ml); format: ADME, Microsome; settings: 1 h
[4] = Cmax in Sprague-Dawley rat at 50 mg/kg, po administered as single dose and measured upto 8 hrs by HPLC analysis; format: ADME, organism-based; parameters: time < 8 hrs, dose 50 mg/kg, route po; settings: in vivo
[5] = Microsomal stability in Sprague-Dawley rat liver microsomes assessed as mean compound concentration measured after 60 mins in the presence of NADPH-generating system by HPLC analysis (Rvb= 100 ug/ml); format: ADME, Microsome; settings: 1 h
[6] = Toxicity in mouse assessed as effect on body weight at 200 mg/kg, po administered for 7 days; format: organism-based; settings: in vivo, 168 h, time 7 day
[7] = Apparent volume of distribution in Sprague-Dawley rat at 10 mg/kg, iv administered as single dose and measured upto 8 hrs by HPLC analysis; format: ADME, organism-based; settings: in vivo
[8] = Cmax in Sprague-Dawley rat at 10 mg/kg, iv administered as single dose and measured upto 8 hrs by HPLC analysis; format: ADME, organism-based; parameters: time < 8 hrs, dose 10 mg/kg, route iv; settings: in vivo
[9] = Half-life in Sprague-Dawley rat at 50 mg/kg, po administered as single dose and measured upto 8 hrs by HPLC analysis; format: ADME, organism-based; settings: in vivo
[10] = Metabolic stability in Sprague-Dawley rat liver microsomes assessed as half-life measured upto 60 mins in the presence of NADPH generating system by HPLC analysis; format: ADME, Microsome; settings: 1 h
[11] = Half-life in Sprague-Dawley rat at 10 mg/kg, iv administered as single dose and measured upto 8 hrs by HPLC analysis; format: ADME, organism-based; settings: in vivo
[12] = AUC (0 to infinity) in Sprague-Dawley rat at 50 mg/kg, po administered as single dose and measured upto 8 hrs by HPLC analysis; format: ADME, organism-based; parameters: time < 8 hrs, dose 50 mg/kg, route po; settings: in vivo
[13] = AUC (0 to 8 hrs) in Sprague-Dawley rat at 50 mg/kg, po administered as single dose and measured upto 8 hrs by HPLC analysis; format: ADME, organism-based; parameters: dose 50 mg/kg, time < 8 hrs, route po; settings: in vivo
[14] = AUC (0 to 8 hrs) in Sprague-Dawley rat at 10 mg/kg, iv administered as single dose and measured upto 8 hrs by HPLC analysis; format: ADME, organism-based; parameters: time < 8 hrs, dose 10 mg/kg, route iv; settings: in vivo
[15] = Oral bioavailability in Sprague-Dawley rat at 50 mg/kg administered as single dose and measured upto 8 hrs by HPLC analysis; format: ADME, organism-based; settings: in vivo
Mus musculus [16] = assay: (§1) Anti-inflammatory activity in L-arginine-induced acute pancreatitis kunming mouse model assessed as reversal of L-arginine induced pancreatic injury by measuring total score at 8 mg/kg, ip pre-treated with L-arginine for 14 hrs followed by compound treatment and measured after 10 hrs by histologic scoring analysis (reference value: 6.25 +/- 0.96); format: functional
[17] = Clearance in Sprague-Dawley rat at 50 mg/kg, po administered as single dose and measured upto 8 hrs by HPLC analysis; format: ADME, organism-based; settings: in vivo
[18] = target: T1, Bifunctional epoxide hydrolase 2 (Mus musculus, UniProt P34914); assay: Inhibition of recombinant mouse soluble epoxide hydrolase using PHOME as substrate assessed as 6-methoxynaphthaldehyde product formation preincubated with compound for 10 mins followed by substrate addition and measured by fluorescence based analysis
T1 sequence (P34914 whole entry): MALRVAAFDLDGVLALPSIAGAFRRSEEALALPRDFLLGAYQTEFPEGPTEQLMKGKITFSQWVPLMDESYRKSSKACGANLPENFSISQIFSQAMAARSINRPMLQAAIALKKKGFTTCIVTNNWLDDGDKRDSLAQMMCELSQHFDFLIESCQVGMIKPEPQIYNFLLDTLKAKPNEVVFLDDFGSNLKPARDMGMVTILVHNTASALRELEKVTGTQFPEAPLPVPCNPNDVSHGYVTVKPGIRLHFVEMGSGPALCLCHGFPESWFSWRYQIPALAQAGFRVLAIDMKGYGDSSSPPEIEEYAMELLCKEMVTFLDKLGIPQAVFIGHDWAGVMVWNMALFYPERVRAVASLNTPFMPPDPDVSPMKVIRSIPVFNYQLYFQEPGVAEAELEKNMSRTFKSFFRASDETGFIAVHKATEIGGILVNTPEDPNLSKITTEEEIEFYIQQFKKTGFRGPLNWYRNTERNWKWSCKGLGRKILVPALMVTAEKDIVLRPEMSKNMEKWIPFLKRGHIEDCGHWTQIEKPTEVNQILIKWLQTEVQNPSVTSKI

[19] = Microsomal stability in Sprague-Dawley rat liver microsomes assessed as mean compound concentration measured after 10 mins in the presence of NADPH-generating system by HPLC analysis (Rvb= 100 ug/ml); format: ADME, Microsome
[20] = Metabolic stability in human liver microsomes assessed as half-life measured upto 60 mins in the presence of NADPH generating system by HPLC analysis; format: ADME, Microsome; settings: 1 h
[21] = Toxicity in LPS-induced C57BL/6 sepsis mouse model assessed as survival rate at 5 mg/kg, ip administered at 4 and 12 hrs post LPS-induction and measured after 35 hrs relative to control; format: organism-based; settings: in vivo
[22] = Microsomal stability in human liver microsomes assessed as mean compound concentration measured after 30 mins in the presence of NADPH-generating system by HPLC analysis (Rvb= 100 ug/ml); format: ADME, Microsome; settings: 0.5 h
Mus musculus [23] = assay: as §1, with “3” for “8”; format: functional
[24] = Protein binding in Sprague-Dawley rat plasma by equilibrium dialysis; format: ADME, cell-free
[25] = target: T2, Bifunctional epoxide hydrolase 2 (Homo sapiens, UniProt P34913); assay: Inhibition of recombinant human soluble epoxide hydrolase using PHOME as substrate assessed as 6-methoxynaphthaldehyde product formation preincubated with compound for 10 mins followed by substrate addition and measured by fluorescence based analysis
T2 sequence (P34913 whole entry): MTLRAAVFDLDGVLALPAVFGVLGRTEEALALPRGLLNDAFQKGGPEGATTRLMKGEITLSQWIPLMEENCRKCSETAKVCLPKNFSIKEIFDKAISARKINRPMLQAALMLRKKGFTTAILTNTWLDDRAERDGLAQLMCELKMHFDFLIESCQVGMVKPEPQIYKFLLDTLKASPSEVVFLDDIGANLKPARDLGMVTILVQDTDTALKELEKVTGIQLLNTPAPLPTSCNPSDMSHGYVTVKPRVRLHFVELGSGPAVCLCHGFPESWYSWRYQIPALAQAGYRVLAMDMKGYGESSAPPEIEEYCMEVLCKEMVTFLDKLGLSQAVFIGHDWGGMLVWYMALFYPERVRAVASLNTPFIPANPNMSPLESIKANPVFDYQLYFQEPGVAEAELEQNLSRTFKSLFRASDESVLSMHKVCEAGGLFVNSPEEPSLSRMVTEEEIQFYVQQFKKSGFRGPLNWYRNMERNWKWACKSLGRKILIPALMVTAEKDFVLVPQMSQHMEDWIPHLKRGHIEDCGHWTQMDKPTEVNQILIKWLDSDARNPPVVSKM

[26] = Toxicity in mouse assessed as tolerance by measuring adverse events at 200 mg/kg, po administered for 7 days; format: organism-based; settings: in vivo, 168 h, time 7 day
[27] = Toxicity in LPS-induced C57BL/6 sepsis mouse model assessed as survival rate at 5 mg/kg, ip administered at 4 and 12 hrs post LPS-induction and measured after 28 hrs relative to control; format: organism-based; settings: in vivo
[28] = Tmax in Sprague-Dawley rat at 10 mg/kg, iv administered as single dose and measured upto 8 hrs by HPLC analysis; format: ADME, organism-based; settings: in vivo
[29] = AUC (0 to infinity) in Sprague-Dawley rat at 10 mg/kg, iv administered as single dose and measured upto 8 hrs by HPLC analysis; format: ADME, organism-based; parameters: dose 10 mg/kg, time < 8 hrs, route iv; settings: in vivo
[30] = Microsomal stability in human liver microsomes assessed as mean compound concentration measured after 10 mins in the presence of NADPH-generating system by HPLC analysis (Rvb= 100 ug/ml); format: ADME, Microsome
[31] = Microsomal stability in Sprague-Dawley rat liver microsomes assessed as mean compound concentration measured after 30 mins in the presence of NADPH-generating system by HPLC analysis (Rvb= 100 ug/ml); format: ADME, Microsome; settings: 0.5 h
[32] = Apparent volume of distribution in Sprague-Dawley rat at 50 mg/kg, po administered as single dose and measured upto 8 hrs by HPLC analysis; format: ADME, organism-based; settings: in vivo

CCC(=O)N1CCCN(C(=O)C2CCCN(Cc3ccc(NC(=O)N[C@@]45C[C@@H]6C[C@@](C)(C[C@@](C)(C6)C4)C5)c(F)c3)C2)CC1 (some centres undefined)
Tmax [1]: 0.25 h
CL [2]: 4.83 mL/min/kg
Stability [3]: 68.78 µg/mL
Cmax [4]: 2.92 nM
Stability [5]: 62.01 µg/mL
Activity [6]: Non-Toxic
Vz [7]: 2.39 L/kg
Cmax [8]: 3.77 nM
t1/2 [9]: 5.55 h
t1/2 [10]: 3.15 h
t1/2 [11]: 5.72 h
AUC [12]: 10.15 nM·h
AUC [13]: 6.39 nM·h
AUC [14]: 6.13 nM·h
F [15]: 20.85%
Activity (Mus musculus [16]): 3.5
CL [17]: 28.3 mL/min/kg
pIC50 [18]: 9.85
Stability [19]: 75.04 µg/mL
t1/2 [20]: 3.7 h
Activity [21]: 12.5%
Stability [22]: 74.76 µg/mL
Activity (Mus musculus [23]): 4.25
PPB [24]: 72.57%
pIC50 [25]: 10.30
Activity [26]: Non-Toxic
Activity [27]: 37.5%
Tmax [28]: 1.8 min
AUC [29]: 11.47 nM·h
Stability [30]: 81.12 µg/mL
Stability [31]: 66.63 µg/mL
Vz [32]: 13.12 L/kg

C[C@]12C[C@@H]3C[C@](C)(C1)C[C@@](NC(=O)Nc1ccc(C(=O)NC4CCC(C(=O)NC(CO)CO)CC4)cc1F)(C3)C2 (some centres undefined)
pIC50 [18]: 9.26
pIC50 [25]: 9.04

CCC(=O)N1CCC(CC(=O)N2CCCN(C(=O)c3ccc(NC(=O)N[C@@]45C[C@@H]6C[C@@](C)(C[C@@](C)(C6)C4)C5)c(F)c3)CC2)CC1
pIC50 [18]: 9.41
pIC50 [25]: 9.05

CC(CN(C)C)N1CCC(CC(=O)N2CCCN(C(=O)c3ccc(NC(=O)N[C@@]45C[C@@H]6C[C@@](C)(C[C@@](C)(C6)C4)C5)c(F)c3)CC2)CC1 (some centres undefined)
pIC50 [18]: 9.10
pIC50 [25]: 7.71

C[C@]12C[C@@H]3C[C@](C)(C1)C[C@@](NC(=O)Nc1ccc(CN4CCCN(C(=O)CC5CCN(CC(O)CO)CC5)CC4)cc1F)(C3)C2 (some centres undefined)
pIC50 [18]: 8.90
pIC50 [25]: 7.24

C[C@]12C[C@@H]3C[C@](C)(C1)C[C@@](NC(=O)Nc1ccc(CN4CCCN(C(=O)CC5CCN(CCO)CC5)CC4)cc1F)(C3)C2
pIC50 [18]: 9.21
pIC50 [25]: 8.33

C[C@]12C[C@@H]3C[C@](C)(C1)C[C@](NC(=O)Nc1ccc(C(=O)N4CCCC(C(=O)NCCO)C4)cc1F)(C3)C2 (some centres undefined)
pIC50 [18]: 9.82
pIC50 [25]: 9.46
